From patent publication US20250171762A1, “THERAPEUTICAL PEPTIDOMIMETIC” (UNIVERSITA' DEGLI STUDI DI ROMA "LA SAPIENZA", priority 2021, published 2025)
Entries after “also recorded” stand apart in the source; their conditions may differ. Where two headings read alike, the source gives them in different places.

Assays:
[1] = Plasma stability: incubation in human plasma, UPLC-MS quantification; format: in vitro ADME; conditions: for remaining at 3 h, 0.2 mM: read-out: peptide available after incubation in plasma
Method: Panel B. Time course decay of β32_33, PMT, PMT-8a and PMT-8b incubated up to 72 h with human plasma from four healthy subjects. […] The Y axis indicates the signal intensity of the four peptides. Samples of plasma were obtained from healthy volunteers and immediately used for the analysis. Either β32_33 peptide or PMT for the experiment in panel A, and β32_33 peptide, PMT, PMT-8a or PMT-8b for the experiment in panel B, was incubated in plasma at a final concentration of 0.2 mM, at 37° C., up to 3 h (A) or 72 h (B). At the indicated time points, i.e., T0 and 3 h (A) or T0, 1.5, 3, 6 and 72 h (B), aliquots of 200 μL were treated with 3 volumes of acetonitrile containing 1% formic acid and extracted by a solid phase extraction system to remove proteins and phospholipids. Samples were dried under vacuum, resuspended in 100 μL of 0.1% formic acid containing 5% acetonitrile, and analyzed with a Water Acquity H-Class UPLC system equipped with a single-quadruple mass detector with electrospray ionization source. Samples were separated onto a reverse phase C18 column by performing a gradient with two mobile phases consisting of 0.1% formic acid in water and 0.1% formic acid in acetonitrile at a flow rate of 0.5 mL/min. Quantification was performed by Selected lon Recording (SIR): at m/z=917.88, corresponding to the [M+2 H]^2+ion obtained from either β32_33 or PMT; at m/z=961.42, corresponding to the [M+H]^+ion obtained from PMT-8a; and at m/z=869.48, corresponding to the [M+H]^+ion obtained from PMT-8b.
In order to evaluate whether compounds (βp and d-βp) are stable in blood or hydrolyzed by plasma peptidases, we set up a chromatographic assay to evaluate compound concentration after incubation in human plasma.
Blood was drawn by venipuncture in vacutainer containing EDTA as an anticoagulant.
Two different samples from healthy volunteers were used. Plasma was separated by centrifugation and immediately used for the experiments. Each compound was dissolved in 500 uL plasma at a final concentration of 0.2 mM, and split into two aliquots, one of which was immediately analyzed to assess the basal compound level; the other was incubated at 37° C. for 3 hours under gentle shaking. In order to perform chromatographic analysis the samples were treated with 3 volumes of acetonitrile containing 1% formic acid, and then extracted by using the Ostro™ pass-through sample preparation system to remove proteins and phospholipids. Samples were dried under vacuum and then resuspended in 100 uL of 0.1% formic acid containing 5% acetonitrile, then directly injected onto the chromatographic column.
Chromatographic analyses were performed on a Water Acquity H-Class UPLC system (Waters, Milford, MA, USA), including a quaternary solvent manager (QSM), a sample manager with a flow through needle system (FTN), a photodiode array detector (PDA) and a single-quadruple mass detector with electrospray ionization source (ACQUITY QDa). Analyses were performed on a reverse phase C18 column (75 mm×3.2 mm i.d., 2.5 μm particle size). The mobile phase was solvent A, 0.1% formic acid in water, and solvent B, 0.1% formic acid in acetonitrile. The flow rate was 0.5 mL/min, the column temperature was set at 25° C. and the elution was performed by linearly increasing the concentration of solvent B up to 70% in 7 minutes. Mass spectrometric detection was performed in the positive electrospray ionization mode, using nitrogen as the nebulizer gas. Analyses were performed in the Total lon Current (TIC) mode with a mass range of 100-1200 m/z. The capillary voltage was 0.8 kV, cone voltage 8 V, ion source temperature 120° C. and probe temperature 600° C. Quantification of each compound was performed by Selected lon Recording (SIR) at m/z 917.88, corresponding to the […]

[2] = test system: m·3243A>G mt-tRNA^Leu(UUR) mutant cybrids; test: Cell viability, Trypan blue dye exclusion, galactose vs glucose medium; format: cell-based, human; conditions: for viability of mutant cybrids vs non treated mutant cells: galactose medium
Method: For viability assessment, cells were plated in either glucose or galactose medium. The reason for this is that a viability phenotype can be appreciated in cells growing on galactose, which forces cells to rely on mitochondrial respiration, but not in cells growing on glucose. After 24 hours incubation, the number of viable cells in the galactose medium was normalized to the number of viable cells in glucose at the same time point, which represents the normal growth condition. Data are compared with the value of mutant cells incubated with vehicle only. Mean±SEM of at least three independent experiments is shown.
For viability assessment, cells were plated in either glucose or galactose medium. The reason for this is that a viability phenotype can be appreciated in cells growing on galactose, which forces cells to rely on mitochondrial respiration, but not in cells growing on glucose. After 24 hours incubation the number of viable cells in galactose medium was normalized to the number of viable cells in glucose (that represents the normal growth condition) at the same time point. Data are compared with the value of mutant cells incubated with vehicle only. Means±SEM of at least two independent experiments are shown.
Previously established osteosarcoma derived (143B.TK-) cybrid cell lines from patients, which bear either the m·3243A>G mutation in mt-tRNA^Leu(UUR) or the m·8344A>G mutation in mt-tRNA^Lys, and controls were used (generous gift from Dr Valeria Tiranti and Dr Valerio Carelli).
Cybrid cells were cultured in Dulbecco's modified Eagle's medium (DMEM), supplemented with 4.5 g/l d-glucose, 10% foetal bovine serum (FBS), 2 mM I-glutamine, 50 μg/ML uridine, 100 U/mL penicillin, and […] (referred to as glucose medium) in a humidified atmosphere of 95% air and 5% CO2 at 37° C. For cell viability experiments, cells were grown either in glucose medium or in glucose-free DMEM, supplemented with 5 mM galactose, […] sodium pyruvate, and 10% FBS (referred to as galactose medium). The reason for using the latter medium is that a pathological phenotype can be appreciated in cells growing on galactose, which forces cells to rely on mitochondrial respiration, but not in cells growing on glucose.
[…] Cells were switched in glucose or galactose and after 24 hours cell viability was measured by the Trypan blue dye exclusion assay. Cells were harvested with 0.25% trypsin and 0.2% EDTA, washed, suspended in PBS in the presence of Trypan blue solution (Sigma-Aldrich) at 1:1 ratio and counted using a hemocytometer. The number of viable cells in galactose medium was expressed as a percentage of the number of cells in glucose medium.
To evaluate the effect of the compounds on viability, cybrids were grown in glucose-free medium supplemented with galactose (galactose medium), a condition that both forces cells to rely on the mt respiratory chain for ATP synthesis and causes a significant growth reduction in the presence of mutations.
To evaluate the effect of PMT and M-PMT on viability, cybrids were grown in glucose-free medium supplemented with galactose (galactose medium), a condition that both forces cells to rely on the mt respiratory chain for ATP synthesis and causes a significant growth reduction in the presence of mutations.

[3] = first experiment, plasma of two healthy volunteers, 37° C., 0.2 mM, 3 hours (FIG. 4A)
[4] = human, human plasma (EDTA) from healthy volunteers, first experiment, plasma of two healthy volunteers, 37° C., 0.2 mM, 3 hours (FIG. 4A)
[5] = second experiment, plasma of four healthy volunteers, 3 hours (FIG. 4B)

Row | Molecule | peptide available after incubation in plasma [1, 3] [%] | detectable degradation in plasma ([1]; first experiment, plasma of two healthy volunteers, 3 hours) | plasma stability compared with another peptide ([1]; human plasma, FIG. 4) | remaining at 3 h, 0.2 mM [1, 4] [%] | remaining at 6 h, 0.2 mM ([1]; human, human plasma from healthy volunteers, second experiment, 6 h, read-out: peptide present after incubation in plasma) [%] | peptide available after incubation in plasma [1, 5] [%] | detectable degradation in plasma ([1]; second experiment, plasma of four healthy volunteers, up to 72 h) | degraded peptide after incubation in plasma ([1]; first experiment, plasma of two healthy volunteers, 37° C., 3 hours (FIG. 4A)) | metabolised at 3 h, 0.2 mM ([1]; human, human plasma (EDTA) from healthy volunteers, first experiment, plasma of two healthy volunteers, 37° C., 3 hours (FIG. 4A), read-out: degraded peptide after incubation in plasma) [%] | metabolised at 6 h, 0.2 mM ([1]; human, human plasma from healthy volunteers, second experiment, 6 h, read-out: peptide degraded after incubation in plasma) [%] | remaining at 1.5 h, 0.2 mM ([1]; human, human plasma from healthy volunteers, second experiment, plasma of four healthy volunteers, 1.5 h (FIG. 4B), read-out: starting amount present after incubation in plasma) [%] | remaining at 3 h, 0.2 mM ([1]; human, human plasma from healthy volunteers, second experiment, plasma of four healthy volunteers, 3 hours (FIG. 4B)) [%] | viability of mutant cybrids vs non treated mutant cells ([2]; 0.5 μM, 24 hours (FIG. 6)) | viability of mutant cybrids vs non treated mutant cells ([2]; 2 μM, 24 hours (FIG. 6)) | viability of mutant cybrids vs non treated mutant cells ([2]; 5 μM, 24 hours) | lower concentration improving viability with respect to PMT ([2]; m·3243A>G mutant cybrids, FIG. 6) [fold]
1 | CC[C@@H](C)[C@@H](NC(=O)[C@@H](CC(C)C)NC(=O)[C@@H](C)NC(=O)[C@H](NC(=O)[C@@H](CCCNC(=N)N)NC(=O)[C@H]1CCCN1C(=O)[C@@H](CO)NC(=O)[C@@H](CC(C)C)NC(=O)[C@@H](Cc1ccccc1)NC(=O)[C@@H](CO)NC(=O)[C@@H](CCCCN)NC(=O)[C@H](N)CCCCN)[C@H](C)O)C(=O)N[C@H](CC(N)=O)C(=O)N[C@H](Cc1ccccc1)C(=O)N[C@H](CC(C)C)C(=O)N[C@@H](C(=O)O)C(C)C [PMT, d(K)d(K)d(S)d(F)d(L)d(S)d(P)d(R)d(T)d(A)d(L)d(I)d(N)d(F)d(L)d(V)] | 100 | does not undergo visible degradation; also recorded: did not undergo detectable degradation | consistently higher stability than the β32_33 peptide; also recorded: higher plasma stability than the β32_33 peptide at all time points; also recorded: slower degradation than the β32_33 peptide | 100 | > 50 | > 63 | did undergo detectable degradation | – | – | – | – | – | – | – | – | –
2 | CC[C@H](C)[C@H](NC(=O)[C@H](CC(C)C)NC(=O)[C@H](C)NC(=O)[C@@H](NC(=O)[C@H](CCCNC(=N)N)NC(=O)[C@@H]1CCCN1C(=O)[C@H](CO)NC(=O)[C@H](CC(C)C)NC(=O)[C@H](Cc1ccccc1)NC(=O)[C@H](CO)NC(=O)[C@H](CCCCN)NC(=O)[C@@H](N)CCCCN)[C@@H](C)O)C(=O)N[C@@H](CC(N)=O)C(=O)N[C@@H](Cc1ccccc1)C(=O)N[C@@H](CC(C)C)C(=O)N[C@H](C(=O)O)C(C)C [β32_33, KKSFLSPRTALINFLV, reference compound] | 70 | – | – | 70 | – | 17 | – | at least 30% | 30 | 90 | > 85 | 17 | – | – | – | –
3 | FRFKKKSFLSPRTALINFLV (SITE 1 d-Phenylalanine; SITE 2 d-Arginine; SITE 3 d-Phenylalanine; SITE 4 d-Lysine; SITE 5 d-Lysine; SITE 6 d-Lysine; SITE 7 d-Serine; SITE 8 d-Phenylalanine; SITE 9 d-Leucine; SITE 10 d-Serine; SITE 11 d-Proline; SITE 12 d-Arginine; SITE 13 d-Threonine; SITE 14 d-Alanine; SITE 15 d-Leucine; SITE 16 d-Isoleucine; SITE 17 d-Asparagine; SITE 18 d-Phenylalanine; SITE 19 d-Leucine; SITE 20 d-Valine) [M-PMT] | – | – | – | – | – | – | – | – | – | – | – | – | significantly improves | significantly improved | significantly improved | 10
